Converted amounts (≈) assume the structure as drawn. Read-outs that look alike come from different tables or passages of the source.
Key:
[1] = Cell viability (cytotoxicity, MTT) using HepG2; type: cell-based, human; conditions: human, HepG2 cells
Procedure: (§1) HepG2 human hepatocellular carcinoma cells were plated on 96-well tissue culture polystyrene plates for 24 h prior to dosing of the cells. The shortlisted hits were diluted in DMSO and serial dilutions are made 1% DMSO in growth media. Compounds at 8 concentrations in triplicate was then incubated for 72 h. Appropriate blanks and controls were run alongside the assay. One h prior to the end of the incubation period, the cells were loaded with MTT [yellow; 3-(4,5-dimethyl-2-thiazolyl)-2,5-diphenyl-2H-tetrazolium bromide], the plates were dried and re-solubilized using DMSO. The plates were then scanned at 570 nm using a plate reader.
(§2) The minimum effective concentration was determined from the lowest concentration whose mean value exceeds the significance level, provided either a clear dose–response relationship was observed, or at least two consecutive concentration points were above the significance level.

[2] = system: HepG2 human hepatocellular carcinoma cells; experiment: Cell viability (cytotoxicity, MTT) using HepG2; type: cell-based; conditions: for MEC: 72h, 3 replicas, NR = No response (Summary sheet); for MTT (MEC) Minimum effective concentration: 72 h, summary sheet
Procedure: as §1, §2

[3] = Semi-thermodynamic solubility; type: physicochemical; conditions: for solubility: Room Temp, Overnight, LC-MSMS; for solubility thermodynamic: overnight; for solubility thermodynamic / Solubility (class in words): summary sheet
Procedure: In vitro ADME-T assays were performed by Cyprotex (Cyprotex Discovery, Cheshire, UK). […] The solution was agitated at ambient temperature overnight. The solutions were then centrifuged for 30 min at 3000 rpm at RT. The supernatant was removed and centrifuged for a further 30 min under the same conditions. An aliquot of the resulting supernatant was diluted in 50% methanol in water (containing an internal standard for MS analysis) prior to analysis by LC–MS/MS. […] These stocks were diluted in 50% methanol in water (containing an internal standard for MS analysis) prior to analysis by LC–MS/MS. The solubility of the shortlisted hits was calculated from a linear or quadratic fit of the standard curve.

DAOY cells = experiment: Spheroid invasion assay (SIA), bFGF-induced collagen I invasion; type: cell-based, human; conditions: for functional activity in SIA (result in words): DAOY, bFGF-induced, 1, 5 and 10 µM
Procedure: 1000—2500 cells/well in 100 μl were seeded in 96 well Corning® Spheroid microplate (CLS4520, Sigma-Aldrich) or in cell-repellent 96 well microplate (650,790, Greiner Bio-one). SIA and analysis was performed as described before. In brief: After spheroid formation (24 – 72 h after seeding), 70 µl medium was removed and replaced with the collagen mixture (2.5 mg/ml Pure Col Collagen I (Advanced Biomatrix)), DMEM 1x (from 10 × stock, Sigma, D2429) and 0.4% Sodium bicarbonate (Sigma, S8761)), resulting in a final collagen concentration of 1.75 mg/ml. Embedded spheroids were stimulated with bFGF (100 ng/ml if not otherwise stated), HGF (30 ng /ml) or EGF (20 ng/ml) and distance of invaded cells quantified 24 – 48 h after embedding. Compounds and BGJ398 were added in Dimethylsulfoxid (DMSO) and corresponding DMSO concentrations were used in control samples.

[4] = Microsomal metabolic stability; type: in vitro ADME; conditions: human, pooled liver microsomes; for half-life at 1 µM: pH 7.4, liver microsomes, read-out: t1/2; for microsomal CLint at 1 µM: pH 7.4, read-out: Metabolic stability - Intrinsic clearance (CI)
Procedure: Pooled liver microsomes were purchased from Xenotech (H0500) and were stored according to manufacturer’s instructions prior to use. […] A minus co-factor control incubation was included for each compound tested where 0.1 M phosphate buffer pH 7.4 was added instead of NADPH. Two control compounds were included with each species. All incubations were performed singularly for each shortlisted hit. Each compound was incubated for 0, 5, 15, 30 and 45 min. The minus co-factor was incubated for 45 min only. The reactions were stopped by transferring incubate into acetonitrile at the appropriate time points in a 1:3 ratio. The termination plates were centrifuged at 3000 rpm for 20 min at 4 °C to precipitate the protein. Following protein precipitation, the supernatant were combined in cassette of up to 4 compounds, internal standard for MS analysis was added and samples were analyzed using LC–MS/MS. From a plot of In peak area ratio (compound peak area/internal standard peak area) against time, the gradient of the lines were determined. Subsequently, half-life and intrinsic clearance were calculated using the following equations. Eliminationrateconstant(k)=(-gradient)Half-life(t1/2)(min)=0.693/kIntrinsicclearance(CLint)(μl/min/mgprotein)=Vx0.693/t1/2 where V = Incubation volume (µl) / Microsomal protein (mg)

[5] = CaCo-2 permeability (bi-directional); conditions: human
Procedure: Caco-2 cells obtained from the ATCC were used between passage numbers 40—60. Cells were seeded onto Millipore Multiscreen Transwell plates at 1 × 10^5 cells/cm^2. The cells were cultured in DMEM and media was changed every two or three days. On day 20, the permeability study was performed. […] Cells were then incubated with HBSS at the desired pH in both apical and basolateral compartments for 40 min to stabilize physiological parameters.
The fluorescent integrity marker lucifer yellow was also included in the dosing solution. Analytical standards were prepared from test compound DMSO dilutions and transferred to buffer, maintaining a 1% v/v DMSO concentration.
For assessment of A-B permeability, HBSS was removed from the apical compartment and replaced with test compound dosing solution. The apical compartment insert was then placed into a companion plate containing fresh buffer (containing 1% v/v DMSO). For assessment of B-A permeability, HBSS was removed from the companion plate and replaced with test compound dosing solution. Fresh buffer (containing 1% v/v DMSO) was added to the apical compartment insert, which was then placed into the companion plate.
Compound permeability was assessed in duplicate. Compounds of known permeability characteristics were run as controls on each assay plate.
Test and control compounds were quantified by LC–MS/MS cassette analysis using a 7-point calibration with appropriate dilution of the samples. The starting concentration (C0) was determined from the dosing solution and the experimental recovery calculated from C0 and both apical and basolateral compartment concentrations. The integrity of the monolayer throughout the experiment was checked by monitoring lucifer yellow permeation using fluorimetric analysis.
The permeability coefficient (Papp) for each compound was calculated from the following equation: Papp=dQ/dtC0×A where dQ/dt was the rate of permeation of the drug across the cells, C0 was the donor compartment concentration at time zero and A was the area of the cell monolayer. C0 was obtained from analysis of the dosing solution.
Efflux ratio (ER) was calculated from mean A-B and B-A data. This was derived from: ER=Papp(B-A)Papp(A-B)

[6] = 72h, 3 replicas, NR = No response (Summary sheet), read-out: AC50
[7] = PBS, aqueous buffer, thermodynamic from solid, read-out: Solubility Replicate 1
[8] = PBS, aqueous buffer, thermodynamic from solid, read-out: Mean Solubility
[9] = PBS, aqueous buffer, thermodynamic from solid, read-out: Solubility Replicate 2
[10] = PBS, aqueous buffer, thermodynamic from solid, read-out: Solubility Replicate 3
[11] = PBS, aqueous buffer, thermodynamic from solid, read-out: Solubility Replicate 4
[12] = aqueous buffer, thermodynamic from solid, PBS
[13] = Caco-2, Mean Papp A-B, Caco-2, summary sheet
[14] = Caco-2, Mean Papp B-A, Caco-2, summary sheet
[15] = Caco-2, pH 7.4, Mean % Recovery A2B, HBSS/HBSS, pH 7.4/7.4
[16] = Caco-2, pH 7.4, Mean % Recovery B2A, HBSS/HBSS, pH 7.4/7.4
[17] = Caco-2, pH 7.4, Mean Papp A2B, HBSS/HBSS, pH 7.4/7.4
[18] = Caco-2, pH 7.4, Mean Papp B2A, HBSS/HBSS, pH 7.4/7.4
[19] = Caco-2, pH 7.4, Papp A2B Replicate 1, HBSS/HBSS, pH 7.4/7.4
[20] = Caco-2, pH 7.4, Papp B2A Replicate 1, HBSS/HBSS, pH 7.4/7.4
[21] = Caco-2, pH 7.4, Papp B2A Replicate 2, HBSS/HBSS, pH 7.4/7.4
[22] = 72 h, summary sheet, read-out: MTT (AC50) Conc at which 50% of maximum efficacy is reached

Row | SMILES | solubility [3, 7] [µM] | solubility [3, 8] [µM] | solubility [3, 9] [µM] | solubility [3, 10] [µM] | solubility [3, 11] [µM] | solubility thermodynamic [3, 12] [µM] | Solubility (class in words) [3] | half-life at 1 µM [4] [min] | microsomal CLint at 1 µM [4] [µL/min/mg] | efflux ratio at 120 min, 10 μM ([5]; Caco-2) | Papp A→B at 120 min, 10 μM [5, 13] [×10⁻⁶ cm/s] | Papp B→A at 120 min, 10 μM [5, 14] [×10⁻⁶ cm/s] | efflux ratio at 120 min, 10 μM ([5]; Caco-2, pH 7.4) | recovery at 120 min, 10 µM [5, 15] [%] | recovery at 120 min, 10 µM [5, 16] [%] | Papp A→B at 120 min, 10 μM [5, 17] [×10⁻⁶ cm/s] | Papp B→A at 120 min, 10 μM [5, 18] [×10⁻⁶ cm/s] | AC50 at 72 h [1, 6] [µM] | MEC [2] [µM] | functional activity in SIA (result in words) (DAOY cells) | further results
1 | N#CC(C#N)=NNc1cccc(Cl)c1 [carbonyl cyanide 3-chlorophenylhydrazone, reference compound] | – | – | – | – | – | – | – | – | – | – | – | – | – | – | – | – | – | 6.66 | 4.22 | – | –
2 | CN(C)CCCN1c2ccccc2Sc2ccc(Cl)cc21 [Chlorpromazine, reference compound] | – | – | – | – | – | – | – | – | – | – | – | – | – | – | – | – | – | 12.9 | 10.7 | – | –
3 | Oc1cc(Cl)cc2c1NC(c1ccccc1)C1CC=CC21 (stereo not drawn) [Compound 11] | 1.95 (≈ 0.581 µg/mL) | 2.18 (≈ 0.649 µg/mL) | – | 2.79 (≈ 0.831 µg/mL) | 1.79 (≈ 0.533 µg/mL) | 2.18 (≈ 0.649 µg/mL) | Sligthly | 2.83 | 490 | 36.9 | 0.3 | 11.1 | 36.9 | 30 | 8.82 | 0.3 | 11.1 | – | 14.2 | reduced effect compared to its parent compound 3.18 at all concentrations | Papp A→B at 120 min, 10 μM [5, 19]: 0.3 ×10⁻⁶ cm/s; Papp B→A at 120 min, 10 μM [5, 20]: 11.5 ×10⁻⁶ cm/s; Papp B→A at 120 min, 10 μM [5, 21]: 10.6 ×10⁻⁶ cm/s; AC50 at 72 h [1, 22]: 19.6 µM; MTT (MEC) Minimum effective concentration [2]: 14.2 µM
4 | COC(=O)C1=C(C)NC(C)=C(C(=O)OCCN(C)Cc2ccccc2)C1c1cccc([N+](=O)[O-])c1 (stereo not drawn) [nicardipine, reference compound] | 34.3 (≈ 16.4 µg/mL) | 29.8 (≈ 14.3 µg/mL) | 24.2 (≈ 11.6 µg/mL) | 29.6 (≈ 14.2 µg/mL) | 31.2 (≈ 15 µg/mL) | – | – | – | – | – | – | – | – | – | – | – | – | – | – | – | –

The next lines start with results.

Row | solubility [3, 7] [µM] | solubility [3, 8] [µM] | solubility [3, 9] [µM] | solubility [3, 10] [µM] | solubility [3, 11] [µM] | solubility thermodynamic [3, 12] [µM] | Solubility (class in words) [3] | half-life at 1 µM [4] [min] | microsomal CLint at 1 µM [4] [µL/min/mg] | efflux ratio at 120 min, 10 μM ([5]; Caco-2) | Papp A→B at 120 min, 10 μM [5, 13] [×10⁻⁶ cm/s] | Papp B→A at 120 min, 10 μM [5, 14] [×10⁻⁶ cm/s] | efflux ratio at 120 min, 10 μM ([5]; Caco-2, pH 7.4) | recovery at 120 min, 10 µM [5, 15] [%] | recovery at 120 min, 10 µM [5, 16] [%] | Papp A→B at 120 min, 10 μM [5, 17] [×10⁻⁶ cm/s] | Papp B→A at 120 min, 10 μM [5, 18] [×10⁻⁶ cm/s] | SMILES | AC50 at 72 h [1, 6] [µM] | MEC [2] [µM] | functional activity in SIA (result in words) (DAOY cells) | further results
5 | > 100 | – | – | – | – | – | – | – | – | – | – | – | – | – | – | – | – | CC(=O)CC(c1ccccc1)c1c(O)c2ccccc2oc1=O (stereo not drawn) [warfarin, reference compound] | – | – | – | solubility ([3]; read-out: Mean Solubility): >100 µM; solubility ([3]; read-out: Solubility Replicate 2): >100 µM; solubility ([3]; read-out: Solubility Replicate 3): >100 µM; solubility ([3]; read-out: Solubility Replicate 4): >100 µM
6 | 1.26 (≈ 0.447 µg/mL) | 1.25 (≈ 0.443 µg/mL) | 1.12 (≈ 0.397 µg/mL) | 1.21 (≈ 0.429 µg/mL) | 1.4 (≈ 0.496 µg/mL) | 1.25 (≈ 0.443 µg/mL) | Sligthly | 0.552 | 2510 | 4 | 1.11 | 4.46 | 4 | 6.59 | 50.6 | 1.11 | 4.46 | CC1(C)Cc2cccc(OCC(=O)Nc3nc4ccccc4s3)c2O1 [Compound E25] | – | 42.6 | comparable inhibition of invasion | EC50 (DAOY cells; Homo sapiens, Daoy, DAOY cells, n = 3 technical replicas, read-out: EC50 for the inhibition of bFGF-induced collagen I invasion): 7.51 µM; Papp A→B at 120 min, 10 μM [5, 19]: 1.12 ×10⁻⁶ cm/s; Papp A→B at 120 min, 10 μM ([5]; Caco-2, pH 7.4, Papp A2B Replicate 2, HBSS/HBSS, pH 7.4/7.4): 1.11 ×10⁻⁶ cm/s; Papp B→A at 120 min, 10 μM [5, 20]: 5.88 ×10⁻⁶ cm/s; Papp B→A at 120 min, 10 μM [5, 21]: 3.04 ×10⁻⁶ cm/s; AC50 at 72 h [1, 22]: 58.7 µM; MTT (MEC) Minimum effective concentration [2]: 42.6 µM
